In ChEMBL document CHEMBL6127079, “Design and synthesis of spiro[pyrrolidine-3,3'-quinoline]-2,2'-dione derivatives as novel antifungal agents targeting chitin synthase” (Eur J Med Chem, 2024):
In brackets after ≈: the same amount, converted by molar mass.

Columns and labels:
[1] = tested on: Candida tropicalis; assay: Inhibition of chitin synthase extracted from Candida tropicalis ATCC 750 using UDP-GlcNAc as substrate assessed as inhibition rate at 300 ug/ml by TMB based microplate analyzer relative to control; conditions: dose 300.0 µg/ml
[2] = Inhibition of chitin synthase extracted from Candida tropicalis ATCC 750 using UDP-GlcNAc as substrate assessed as inhibition rate by TMB based microplate analyzer relative to control
[3] = tested on: Candida albicans; assay: Antifungal activity against Candida albicans ATCC 76615 assessed as inhibition of growth incubated for 24 hrs by two-fold serial dilution method; format: functional
[4] = tested on: Aspergillus flavus; assay: Antifungal activity against Aspergillus flavus ATCC 16870 assessed as inhibition of growth incubated for 24 hrs by two-fold serial dilution method; format: functional
[5] = tested on: Aspergillus fumigatus; assay: Antifungal activity against Aspergillus fumigatus GIMCC 3.19 assessed as inhibition of growth incubated for 24 hrs by two-fold serial dilution method; format: functional
[6] = tested on: Cryptococcus neoformans; assay: Antifungal activity against Cryptococcus neoformans ATCC 32719 assessed as inhibition of growth incubated for 24 hrs by two-fold serial dilution method; format: functional
[7] = tested on: Candida albicans; assay: Antifungal activity against drug-resistant Candida albicans ATCC 76615 assessed as inhibition of cell wall synthesis in presence of sorbitol incubated for 24 hrs; format: functional
[8] = tested on: Aspergillus flavus; assay: Antifungal activity against drug-resistant Aspergillus flavus ATCC 16870 assessed as inhibition of cell wall synthesis in presence of sorbitol incubated for 24 hrs; format: functional
[9] = tested on: Aspergillus fumigatus; assay: Antifungal activity against drug-resistant Aspergillus fumigatus GIMCC 3.19 assessed as inhibition of cell wall synthesis in presence of sorbitol incubated for 24 hrs; format: functional
[10] = tested on: Cryptococcus neoformans; assay: Antifungal activity against drug-resistant Cryptococcus neoformans ATCC 32719 assessed as inhibition of cell wall synthesis in presence of sorbitol incubated for 24 hrs; format: functional
[11] = tested on: Candida albicans; assay: Antifungal activity against fluconazole-resistant Candida albicans ATCC 76615 assessed as inhibition of fungal growth incubated for 24 to 72 hrs; format: functional; conditions: time 24-72 hrs
[12] = tested on: Aspergillus flavus; assay: Antifungal activity against fluconazole-resistant Aspergillus flavus ATCC 16870 assessed as inhibition of fungal growth incubated for 24 to 72 hrs; format: functional; conditions: time 24-72 hrs
[13] = tested on: Aspergillus fumigatus; assay: Antifungal activity against fluconazole-resistant Aspergillus fumigatus GIMCC 3.19 assessed as inhibition of fungal growth incubated for 24 to 72 hrs; format: functional; conditions: time 24-72 hrs
[14] = tested on: Cryptococcus neoformans; assay: Antifungal activity against fluconazole-resistant Cryptococcus neoformans ATCC 32719 assessed as inhibition of fungal growth incubated for 24 to 72 hrs; format: functional; conditions: time 24-72 hrs
[15] = tested on: Candida albicans; assay: Antifungal activity against micafungin-resistant Candida albicans ATCC 76615 assessed as inhibition of fungal growth incubated for 24 to 72 hrs; format: functional; conditions: time 24-72 hrs
[16] = tested on: Candida albicans; assay: Antifungal activity against Candida albicans ATCC 76615 incubated for 24 hrs by half broth dilution based checkerboard method; format: functional
[17] = tested on: Aspergillus flavus; assay: Antifungal activity against Aspergillus flavus ATCC 16870 incubated for 24 hrs by half broth dilution based checkerboard method; format: functional
[18] = tested on: Aspergillus fumigatus; assay: Antifungal activity against Aspergillus fumigatus GIMCC 3.19 incubated for 24 hrs by half broth dilution based checkerboard method; format: functional
[19] = tested on: Cryptococcus neoformans; assay: Antifungal activity against Cryptococcus neoformans ATCC 32719 incubated for 24 hrs by half broth dilution based checkerboard method; format: functional
[20] = tested on: Candida albicans; assay: Antifungal activity against Candida albicans ATCC 76615 assessed as fluconazole MIC incubated for 24 hrs in presence of fluconazole by half broth dilution based checkerboard method; format: functional
[21] = tested on: Aspergillus flavus; assay: Antifungal activity against Aspergillus flavus ATCC 16870 assessed as fluconazole MIC incubated for 24 hrs in presence of fluconazole by half broth dilution based checkerboard method; format: functional
[22] = tested on: Aspergillus fumigatus; assay: Antifungal activity against Aspergillus fumigatus GIMCC 3.19 assessed as fluconazole MIC incubated for 24 hrs in presence of fluconazole by half broth dilution based checkerboard method; format: functional
[23] = tested on: Cryptococcus neoformans; assay: Antifungal activity against Cryptococcus neoformans ATCC 32719 assessed as fluconazole MIC incubated for 24 hrs in presence of fluconazole by half broth dilution based checkerboard method; format: functional
[24] = tested on: Aspergillus fumigatus; assay: Synergistic antifungal activity against Aspergillus fumigatus GIMCC 3.19 assessed as fractional inhibitory concentration index in presence of fluconazole incubated for 24 hrs by half broth dilution based checkerboard method; format: functional
[25] = tested on: Candida albicans; assay: Synergistic antifungal activity against Candida albicans ATCC 76615 assessed as fractional inhibitory concentration index in presence of fluconazole incubated for 24 hrs by half broth dilution based checkerboard method; format: functional
[26] = tested on: Aspergillus flavus; assay: Synergistic antifungal activity against Aspergillus flavus ATCC 16870 assessed as fractional inhibitory concentration index in presence of fluconazole incubated for 24 hrs by half broth dilution based checkerboard method; format: functional
[27] = tested on: Cryptococcus neoformans; assay: Synergistic antifungal activity against Cryptococcus neoformans ATCC 32719 assessed as fractional inhibitory concentration index in presence of fluconazole incubated for 24 hrs by half broth dilution based checkerboard method; format: functional
[28] = tested on: Candida albicans; assay: Antifungal activity against Candida albicans ATCC 76615 assessed as Polyoxin B MIC incubated for 24 hrs in presence of fluconazole by half broth dilution based checkerboard method; format: functional
[29] = tested on: Aspergillus flavus; assay: Antifungal activity against Aspergillus flavus ATCC 16870 assessed as Polyoxin B MIC incubated for 24 hrs in presence of fluconazole by half broth dilution based checkerboard method; format: functional
[30] = tested on: Aspergillus fumigatus; assay: Antifungal activity against Aspergillus fumigatus GIMCC 3.19 assessed as Polyoxin B MIC incubated for 24 hrs in presence of fluconazole by half broth dilution based checkerboard method; format: functional
[31] = tested on: Cryptococcus neoformans; assay: Antifungal activity against Cryptococcus neoformans ATCC 32719 assessed as Polyoxin B MIC incubated for 24 hrs in presence of fluconazole by half broth dilution based checkerboard method; format: functional
[32] = tested on: Candida albicans; assay: Synergistic antifungal activity against Candida albicans ATCC 76615 assessed as fractional inhibitory concentration index in presence of Polyoxin B incubated for 24 hrs by half broth dilution based checkerboard method; format: functional
[33] = tested on: Aspergillus flavus; assay: Synergistic antifungal activity against Aspergillus flavus ATCC 16870 assessed as fractional inhibitory concentration index in presence of Polyoxin B incubated for 24 hrs by half broth dilution based checkerboard method; format: functional
[34] = tested on: Aspergillus fumigatus; assay: Synergistic antifungal activity against Aspergillus fumigatus GIMCC 3.19 assessed as fractional inhibitory concentration index in presence of Polyoxin B incubated for 24 hrs by half broth dilution based checkerboard method; format: functional
[35] = tested on: Cryptococcus neoformans; assay: Synergistic antifungal activity against Cryptococcus neoformans ATCC 32719 assessed as fractional inhibitory concentration index in presence of Polyoxin B incubated for 24 hrs by half broth dilution based checkerboard method; format: functional

Row | Structure (SMILES) | inhibition [1] | IC50 [2] | MIC [3] | MIC [4] | MIC [5] | MIC [6] | MIC [7] | MIC [8] | MIC [9] | MIC [10] | MIC [11] | MIC [12] | MIC [13] | MIC [14] | MIC [15] | MIC [16] | MIC [17] | MIC [18] | MIC [19] | MIC [20] | other results
1 | O=C(CN1CCC(C(=O)Nc2cccc3ccccc23)CC1)Nc1ccc2c(c1)NC(=O)C1(CCNC1=O)C2 (racemic) | 84% | 99 µM | 16 µg/mL (≈ 30.4 µM) | 8 µg/mL (≈ 15.2 µM) | 8 µg/mL (≈ 15.2 µM) | 32 µg/mL (≈ 60.9 µM) | 256 µg/mL | 128 µg/mL | 512 µg/mL | 512 µg/mL | 32 µg/mL (≈ 60.9 µM) | 64 µg/mL (≈ 122 µM) | 64 µg/mL (≈ 122 µM) | 64 µg/mL (≈ 122 µM) | 32 µg/mL (≈ 60.9 µM) | 16 µg/mL | 8 µg/mL | 8 µg/mL | 2 µg/mL | 1 µg/mL | MIC [21]: 1.5 µg/mL; MIC [22]: 2 µg/mL; MIC [23]: 0.75 µg/mL; fractional inhibitory concentration index (FICI) [24]: 1; fractional inhibitory concentration index (FICI) [25]: 0.75; fractional inhibitory concentration index (FICI) [26]: 0.75; fractional inhibitory concentration index (FICI) [27]: 1; MIC [28]: 16 µg/mL; MIC [29]: 8 µg/mL; MIC [30]: 8 µg/mL; MIC [31]: 32 µg/mL; fractional inhibitory concentration index (FICI) [32]: 0.75; fractional inhibitory concentration index (FICI) [33]: 2; fractional inhibitory concentration index (FICI) [34]: 1.5; fractional inhibitory concentration index (FICI) [35]: 1
2 | O=C(/C=C/C(=O)Nc1cccc2ccccc12)Nc1ccc2c(c1)NC(=O)C1(CCNC1=O)C2 (racemic) | 79.5% | 131 µM | 16 µg/mL (≈ 35.2 µM) | 8 µg/mL (≈ 17.6 µM) | 8 µg/mL (≈ 17.6 µM) | 8 µg/mL (≈ 17.6 µM) | 256 µg/mL | 64 µg/mL | 128 µg/mL | 128 µg/mL | 32 µg/mL (≈ 70.4 µM) | 32 µg/mL (≈ 70.4 µM) | 64 µg/mL (≈ 141 µM) | 32 µg/mL (≈ 70.4 µM) | 32 µg/mL (≈ 70.4 µM) | 4 µg/mL | 2 µg/mL | 2 µg/mL | 2 µg/mL | 8 µg/mL | MIC [21]: 2 µg/mL; MIC [22]: 2 µg/mL; MIC [23]: 2 µg/mL; fractional inhibitory concentration index (FICI) [24]: 1; fractional inhibitory concentration index (FICI) [25]: 1.125; fractional inhibitory concentration index (FICI) [26]: 0.75; fractional inhibitory concentration index (FICI) [27]: 0.5; MIC [28]: 8 µg/mL; MIC [29]: 2 µg/mL; MIC [30]: 2 µg/mL; MIC [31]: 2 µg/mL; fractional inhibitory concentration index (FICI) [32]: 1.25; fractional inhibitory concentration index (FICI) [33]: 0.75; fractional inhibitory concentration index (FICI) [34]: 1; fractional inhibitory concentration index (FICI) [35]: 0.5
3 | O=C(CN1CCC(C(=O)Nc2ccc(Br)cc2)CC1)Nc1ccc2c(c1)NC(=O)C1(CCNC1=O)C2 (racemic) | 63% | 116 µM | 16 µg/mL (≈ 28.9 µM) | 32 µg/mL (≈ 57.7 µM) | 16 µg/mL (≈ 28.9 µM) | 8 µg/mL (≈ 14.4 µM) | 256 µg/mL | 256 µg/mL | 512 µg/mL | 128 µg/mL | 32 µg/mL (≈ 57.7 µM) | 64 µg/mL (≈ 115 µM) | 64 µg/mL (≈ 115 µM) | 32 µg/mL (≈ 57.7 µM) | 32 µg/mL (≈ 57.7 µM) | 16 µg/mL | 32 µg/mL | 16 µg/mL | 8 µg/mL | 4 µg/mL | MIC [21]: 4 µg/mL; MIC [22]: 2 µg/mL; MIC [23]: 2 µg/mL; fractional inhibitory concentration index (FICI) [24]: 1; fractional inhibitory concentration index (FICI) [25]: 1; fractional inhibitory concentration index (FICI) [26]: 1.25; fractional inhibitory concentration index (FICI) [27]: 0.75; MIC [28]: 16 µg/mL; MIC [29]: 32 µg/mL; MIC [30]: 16 µg/mL; MIC [31]: 8 µg/mL; fractional inhibitory concentration index (FICI) [32]: 1; fractional inhibitory concentration index (FICI) [33]: 0.5; fractional inhibitory concentration index (FICI) [34]: 1; fractional inhibitory concentration index (FICI) [35]: 1.5
